Entries after “also recorded” stand apart in the source; their conditions may differ. Where two headings read alike, the source gives them in different places.
Legend:
NPCs [1] = assay: Culture of fetal kidney of single allele knock-in (heterozygous) mice with CID and/or AT406; assay type: cell-based, mouse
nephron progenitor cells = assay: Kidney organoid from nephron progenitor cells of Six2-iCaspase9-tdTomato mouse, CID administration; assay type: cell-based; settings: with CID administration
Experimental: Nephron progenitor cells were isolated from the Six2-iCaspase9-tdTomato mouse prepared in Experimental Example 1, and a kidney organoid was prepared by three-dimensional culture. AP20187 (hereinafter, referred to as CID) was administered to the kidney organoid.

NPCs [2] = assay: Administration to heterozygous neonatal mice, CID alone or combined with AT406; assay type: in vivo, mouse
[3] = tested on: Six2-positive nephron progenitor cells; assay: Organ culture on Transwell of E11 fetal kidney of Six2-iCaspase9-tdTomato mouse with CID in medium; assay type: cell-based; settings: for Expression of tdTomato fluorescence in nephron progenitor cells: second day after administration
Experimental: The kidney was excised from an E11 fetus of the Six2-iCaspase9-tdTomato mouse prepared in Experimental Example 1, and organ culture was performed on a Transwell. In the group in which AP20187 (CID) was administered to the culture medium, the expression of tdTomato fluorescence in nephron progenitor cells was reduced on the second day after administration (see FIG. 4).

glomeruli = assay: Nephron replacement: rat renal progenitor cells injected into homozygous fetal kidney, CID-added culture medium, then transplanted into immunodeficient mice; assay type: in vivo, mouse; settings: rat RPCs injected, day 14 after transplant into immunodeficient mice
Experimental: It was verified whether or not the replacement of nephron could be induced by transplanting the exogenous NPC at the same time as the removal of the NPC of the fetal kidney (see FIG. 20). In a case where renal progenitor cells (RPCs) of rats were injected into a homozygous fetal kidney and cultured in a CID-added culture medium, it was confirmed that at the time point of day 4, the renal progenitor cells adhered to the ureteral bud of the host and formed a chimeric cap mesenchyme (see FIG. 21). In addition, in a case where the cells were transplanted into immunodeficient mice after the cell injection and allowed to develop in vivo, it was confirmed that at the time point of day 14, the rat-derived cells differentiated into glomeruli and renal tubules, and approximately 80% of the glomeruli were replaced with rat-derived cells. A rat distal tubule connected to the collecting duct derived from the fetal mouse kidney was also confirmed (see FIG. 22).

NPCs [4] = assay: Subcutaneous administration to homozygous neonatal mice; assay type: in vivo, mouse
NPCs [5] = assay: Intraperitoneal administration to pregnant dam carrying homozygous fetuses; assay type: in vivo, mouse
Description: The CID was intraperitoneally administered to a pregnant dam carrying homozygous fetuses (see FIG. 15). As a result, it was confirmed that the kidney size of the neonates (PO) was reduced and the cap mesenchyme structure, which constitutes the nephrogenic niche formed by NPCs, was disrupted (see FIG. 16). […] Furthermore, a decrease in the number of glomeruli was also confirmed (see FIG. 18).

NPCs [6] = assay: Culture of kidneys of E13.5 fetuses of both allele knock-in (homozygous) mice with CID; assay type: cell-based, mouse; settings: 100 nM of CID, homozygous E13.5 fetal kidney culture
Experimental: In a case where the kidneys of E13.5 fetuses of both allele knock-in (homozygous) mice were collected, CID was added thereto, and the kidneys were cultured, it was confirmed that 90% or more of NPCs were removed by adding 100 nM of CID (see FIG. 10).

[7] = tested on: Six2-positive nephron progenitor cells; assay: Intraperitoneal administration to neonatal Six2-iCaspase9-tdTomato mice, kidneys collected 48 hours later; assay type: in vivo, mouse
Experimental: AP20187 (CID) was intraperitoneally administered to neonatal Six2-iCaspase9-tdTomato mice prepared in Experimental Example 1, and the […] mouse kidneys were collected 48 hours later.

[8] = tested on: Six2-positive nephron progenitor cells; assay: TUNEL staining of organ-cultured E13 fetal kidney of Six2-iCaspase9-tdTomato mouse; assay type: cell-based; settings: 100 nM CID, 12 hours after administration
Experimental: The kidney was excised from an E13 fetus of the Six2-iCaspase9-tdTomato mouse prepared in Experimental Example 1, and organ culture was performed on a Transwell. Apoptosis was evaluated by TUNEL staining after collection at 12 and 18 hours following the administration of 100 nM CID to the culture medium.

[9] = administration at E13.5, animal at 1 month of age
[10] = intraperitoneal to pregnant dam, homozygous fetuses

CN[C@@H](C)C(=O)N[C@H]1CN(C(=O)CC(C)C)CC[C@H]2CC[C@@H](C(=O)NC(c3ccccc3)c3ccccc3)N2C1=O [AT406]
NPC removal (NPCs [1]; single administration of AT406, heterozygous fetal kidney culture): NPC removal did not occur

CC[C@H](C(=O)N1CCCC[C@H]1C(=O)O[C@H](CCc1ccc(OC)c(OC)c1)c1cccc(OCC(=O)NCC(CNC(=O)COc2cccc([C@@H](CCc3ccc(OC)c(OC)c3)OC(=O)[C@@H]3CCCCN3C(=O)[C@@H](CC)c3cc(OC)c(OC)c(OC)c3)c2)CN(C)C)c1)c1cc(OC)c(OC)c(OC)c1 [CID, AP20187]
Apoptosis of nephron progenitor cells (immunostained image) (nephron progenitor cells): subjected to apoptosis; also recorded: Induced cell death of nephron progenitor cells was observed | NPC removal (NPCs [2]): NPC removal does not occur | Removal of Six2-positive nephron progenitor cells (immunostaining) ([3]; day 3): removal of Six2-positive nephron progenitor cells was confirmed | Expression of tdTomato fluorescence in nephron progenitor cells [3]: removal of nephron progenitor cells | Expression of tdTomato fluorescence in nephron progenitor cells ([3]; listed as AP20187): reduced | Glomeruli replaced with rat-derived cells (glomeruli): approximately 80% | NPC removal (NPCs [1]; 100 nM of CID alone, heterozygous fetal kidney culture): NPC removal was not confirmed | NPC removal (NPCs [4]): NPC removal was confirmed | Survival of animals after birth (NPCs [5]; administration at E11.5): died due to severe renal failure | Survival of animals after birth (NPCs [5]; administration at E13.5): survival of animals was confirmed | Serum urea nitrogen (BUN) compared with the control (NPCs [5]; [9]): significantly increased | Urinary albumin-to-creatinine ratio (ACR) compared with the control (NPCs [5]; [9]): significantly increased | Cap mesenchyme structure (nephrogenic niche formed by NPCs) (NPCs [5]; [10]): disrupted | Kidney size of the neonates (P0) (NPCs [5]; [10]): reduced | NPCs by immunostaining (NPCs [5]; [10]): disappearance of the NPCs was confirmed | Number of glomeruli (NPCs [5]; [10]): decrease | NPCs removed (NPCs [6]): ≥ 90% | Nephron progenitor cell marker Six2 (immunostaining) in kidney [7]: disappeared; also recorded: removal of Six2-positive nephron progenitor cells in the neonatal kidney was observed | Nephron progenitor cells (red, tdTomato fluorescence) in kidney [7]: disappeared due to apoptosis | Nephron progenitor cells (red, tdTomato fluorescence) in kidney ([7]; listed as AP20187): removal of Six2-positive nephron progenitor cells in the neonatal kidney was observed | Apoptosis by TUNEL staining, co-localization with Six2-positive nephron progenitor cells [8]: TUNEL positivity was observed
